Source: article PMC11215747, “Improved Rigidin-Inspired Antiproliferative Agents with Modifications on the 7-Deazahypoxanthine C7/C8 Ring Systems” (Journal of Medicinal Chemistry, 2024)
“Also recorded” adds a separate entry of the source. Like-named read-outs stand apart in the source and are kept apart here.

Key:
HeLa cells [1] = test: Annexin V apoptosis assay and cell-fate tracking in HeLa cells; format: cell-based, Human; conditions: 20 nM; for apoptosis at the 30 hour time point (Annexin V fluorescence): 6 biological replicates, one-way ANOVA amongst compounds; for total numbers of cells that died following mitotic arrest: single-cell tracking, >130 cells per treatment
Protocol: To directly assess apoptosis in living cells, HeLa cells were plated (six biological replicates per condition) in 96-well Imagelock Plates (Sartorius BA-04855) at a density of 1,562.5 cells/cm^2. The following day, cells were placed in media containing IncuCyte Annexin V Dye (Sartorius 4642) supplemented with either 0.1% Dimethyl sulfoxide or test compounds (20 nM), and plates were placed in a Sartorius Incucyte S3 live cell imaging system. Plates were scanned hourly, with phase contrast and green fluorescence images were acquired at three positions per well. Raw fluorescence data was processed using Incucyte software, and Prism Graphpad was used for data visualization and statistical analysis. To track individual cell fates, combined phase contrast/fluorescence time lapse sequences were exported from multiple wells per condition, and cell fates individual cells were scored and tabulated using Graphpad Prism software.

HeLa cells [2] = test: Microtubule organization by immunolabeling in HeLa cells; format: cell-based, Human; conditions: 4 h; for effect on interphase microtubules / effect on spindle morphology: at GI50 concentrations
Protocol: To examine microtubule morphology in rigidin-treated cells, HeLa cells were incubated for 4 h in the presence or absence of test compound before being fixed with 3.7% formaldehyde in PBS and permeabilized with 0.1% Triton X-100 in PBS. After blocking the cells with 3% bovine serum albumin in PBS, they were probed with antibodies for the centromere marker CENP-B (Abcam, code ab25734) and tubulin (Sigma, code sc-53029), which were detected with Alexa Fluor-labeled secondary antibodies (Thermofisher). Hoechst 33342 (1 mg/mL, Thermofisher H3570) was used to stain DNA. Samples were mounted on glass slides and imaged using Andor Dragonfly 505 spinning disk confocal system mounted on an Olympus IX83 inverted microscope. Figures were created with Adobe Photoshop CS5. All drugs were resuspended in DMSO, and 0.1% DMSO served as a carrier control.

PNT1A cells = test: MTT cytotoxicity assay against normal epithelial cell line PNT1A; format: cell-based; conditions: molecular formula strings CSV, read-out: PNT1A GI50
Protocol: (§1) The 3-(4,5-dimethylthiazol-2-yl)-2,5-diphenyltetrazolium bromide (MTT) assay was employed to evaluate the antiproliferative activities of the synthesized 7-deazahypoxathine analogues. The HeLa, PNT1A, or PANC-1 cell lines were assessed by trypsinizing and seeding 4 × 10^3 cells per well into 96-well plates. Synthesized compounds were dissolved in DMSO at a concentration of either 50 mM or 100 mM before cell treatment. Cells were grown for 24 h and then treated with compounds at concentrations ranging from 0.04 to 100 μM and incubated for 48 h in 200 μL media. Twenty microliters of MTT reagent in serum-free medium (5 mg/mL) was added to each well and incubated further for 2 h. Media was removed and the resulting formazan crystals were resolubilized in 200 μL of DMSO. A Thermomax Molecular Device plate reader was utilized to measure A490. Experiments were performed in quadruplicate and repeated at least twice for each compound. The control comprised of cells treated with 0.1% DMSO. One micromolar phenyl arsine oxide (PAO) was utilized as a positive killing control.

tubulin = molecular target: T1, tubulin (Sus scrofa, UniProt P02554); test: Fluorescence-based tubulin polymerization assay; format: biochemical; conditions: relative to 1% DMSO control
T1 construct: purchased Cytoskeleton, Inc
Protocol: The fluorescence-based tubulin polymerization assay from Cytoskeleton, Inc. was used. […] The tubulin reaction mixture was prepared per manufacturer’s instructions, kept on ice, and used within ∼15 min of preparation. A Biotek Synergy H4 hybrid multimode plate reader was preheated to 37 °C. Prior to starting the assay, a half-area black 96-well plate was preheated within the plate reader. A volume of 5 μL of each of the tested samples was pipetted into separate wells of the plate and incubated in the warm plate reader for 1 min.

HeLa cells [3] = test: MTT antiproliferative assay against HeLa cells; format: cell-based, Human
Protocol: as §1, with “control. […]” for “control.”

[4] = Stability of compound in solution; format: physicochemical; conditions: in solution / over time
[5] = design: method as in PMID 23927793; conditions: cell line not given; cited from earlier work
[6] = Aqueous solubility by laser nephelometry; format: physicochemical; conditions: initial analysis
[7] = 25 μM, averaged from two experiments
[8] = Homo sapiens, MTT assay, 48 h treatment, relative to DMSO control, two independent determinations, each in quadruplicate, read-out: GI50 (μM)± SD
[9] = Homo sapiens, MTT, 48 h, average and SD from two independent determinations, each in quadruplicate (footnote c), read-out: GI50 (μM) ± SD

T1 sequence (P02554 whole entry): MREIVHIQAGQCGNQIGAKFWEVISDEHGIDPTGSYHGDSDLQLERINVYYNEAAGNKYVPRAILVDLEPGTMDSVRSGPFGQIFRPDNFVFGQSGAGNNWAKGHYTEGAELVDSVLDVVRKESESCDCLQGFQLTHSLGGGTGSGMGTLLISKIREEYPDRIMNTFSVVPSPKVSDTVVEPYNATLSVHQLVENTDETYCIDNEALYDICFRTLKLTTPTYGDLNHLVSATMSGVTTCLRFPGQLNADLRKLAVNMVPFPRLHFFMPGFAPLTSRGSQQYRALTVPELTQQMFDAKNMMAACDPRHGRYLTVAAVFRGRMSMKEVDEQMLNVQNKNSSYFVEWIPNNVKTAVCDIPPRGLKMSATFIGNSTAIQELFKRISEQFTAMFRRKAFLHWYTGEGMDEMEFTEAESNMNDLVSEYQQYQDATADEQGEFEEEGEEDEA
T1 sequence (P02550 whole entry partner): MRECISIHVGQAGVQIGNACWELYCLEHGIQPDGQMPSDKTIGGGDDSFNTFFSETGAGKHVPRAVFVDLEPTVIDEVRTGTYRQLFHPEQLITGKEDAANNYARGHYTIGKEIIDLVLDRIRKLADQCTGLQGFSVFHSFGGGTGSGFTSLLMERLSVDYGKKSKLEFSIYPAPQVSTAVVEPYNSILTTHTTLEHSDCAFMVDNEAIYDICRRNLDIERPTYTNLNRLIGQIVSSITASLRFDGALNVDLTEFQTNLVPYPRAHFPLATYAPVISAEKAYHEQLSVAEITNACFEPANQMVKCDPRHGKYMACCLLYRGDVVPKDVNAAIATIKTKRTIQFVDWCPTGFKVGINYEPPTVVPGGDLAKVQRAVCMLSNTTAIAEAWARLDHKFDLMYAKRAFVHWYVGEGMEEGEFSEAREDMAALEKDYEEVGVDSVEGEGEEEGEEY

5-(3,5-Difluorophenyl)-6-[4-(2-ethoxyethoxy)benzoyl]-2-(pent-4-yn-1-yl)-1,7-dihydro-4H-pyrrolo[2,3-d]pyrimidin-4-one [Compound 60]
apoptosis at the 30 hour time point (Annexin V fluorescence) (HeLa cells [1]): no significant differences | total numbers of cells that died following mitotic arrest (HeLa cells [1]): 85% | effect on interphase microtubules (HeLa cells [2]): no striking effects on interphase microtubules | effect on spindle morphology (HeLa cells [2]): remarkable effects on the spindle morphology | GI50 (PNT1A cells): 48 ± 10 nM

6-[4-(2-Ethoxyethoxy)benzoyl]-5-(3-fluorophenyl)-2-(pent-4-yn-1-yl)-1,7-dihydro-4H-pyrrolo[2,3-d]pyrimidin-4-one [Compound 59]
apoptosis at the 30 hour time point (Annexin V fluorescence) (HeLa cells [1]): no significant differences | total numbers of cells that died following mitotic arrest (HeLa cells [1]): 87% | effect on in vitro tubulin polymerization (tubulin; [7]): potent inhibition of microtubule assembly; also recorded: completely suppress tubulin polymerization | effect on interphase microtubules (HeLa cells [2]): no striking effects on interphase microtubules | effect on spindle morphology (HeLa cells [2]): remarkable effects on the spindle morphology | GI50 (HeLa cells [3]; MTT, 48 h, average of eight repeats determined over 5 weeks (footnote d), read-out: GI50 (μM) ± SD): 0.016 ± 0.004 µM | GI50 (PNT1A cells): 41 ± 11 nM

6-[4-(2-Ethoxyethoxy)benzoyl]-5-(6-fluoropyridin-2-yl)-2-(pent-4-yn-1-yl)-1,7-dihydro-4H-pyrrolo[2,3-d]pyrimidin-4-one [Compound 61]
stability [4]: unstable over time; also recorded: clear degradation of the compound in solution | GI50 (HeLa cells [3]; tested once, compound degraded in solution, read-out: GI50): 0.0224 µM

C#CCCCc1nc(=O)c2c(-c3ccccc3C)c(C(=O)c3ccccc3)[nH]c2[nH]1 [Compound 13, 6-Benzoyl-2-(pent-4-yn-1-yl)-5-(o-tolyl)-1,7-dihydro-4H-pyrrolo[2,3-d]pyrimidin-4-one]
GI50 (HeLa cells [3]; [8]): 0.142 ± 0.044 µM

C#CCCCc1nc(=O)c2c(-c3c(C)cccc3C)c(C(=O)c3ccccc3)[nH]c2[nH]1 [Compound 14, 6-Benzoyl-5-(2,6-dimethylphenyl)-2-(pent-4-yn-1-yl)-1,7-dihydro-4H-pyrrolo[2,3-d]pyrimidin-4-one]
GI50 (HeLa cells [3]; [8]): 2.3 ± 0.09 µM

C#CCCCc1nc(=O)c2c(-c3ccc(N4CCOCC4)cc3)c(C(=O)c3ccccc3)[nH]c2[nH]1 [Compound 15, 6-Benzoyl-5-(4-morpholinophenyl)-2-(pent-4-yn-1-yl)-1,7-dihydro-4H-pyrrolo[2,3-d]pyrimidin-4-one]
decrease in antiproliferative activity compared to lead compound 1 (HeLa cells [3]): 500 fold | GI50 (HeLa cells [3]; [8]): 11.3 ± 0.65 µM

C#CCCCc1nc(=O)c2c(-c3ccccc3)c(C(=O)c3ccccc3C)[nH]c2[nH]1 [Compound 21, 6-(2-Methylbenzoyl)-2-(pent-4-yn-1-yl)-5-phenyl-1,7-dihydro-4H-pyrrolo[2,3-d]pyrimidin-4-one]
GI50 (HeLa cells [3]; [8]): 0.062 ± 0.005 µM | GI50 (PNT1A cells; Homo sapiens, PNT1A): 53 ± 12 nM

C#CCCCc1nc(=O)c2c(-c3ccccc3)c(C(=O)c3ccc(N4CCOCC4)cc3)[nH]c2[nH]1 [Compound 27, 6-(4-Morpholinobenzoyl)-2-(pent-4-yn-1-yl)-5-phenyl-1,7-dihydro-4H-pyrrolo[2,3-d]pyrimidin-4-one]
GI50 (HeLa cells [3]; [8]): 0.025 ± 0.002 µM | GI50 (PNT1A cells; Homo sapiens, PNT1A): 49 ± 20 nM

CC#CCCc1nc(=O)c2c(-c3ccccc3)c(C(=O)c3ccc(N4CCOCC4)cc3)[nH]c2[nH]1 [Compound 30, 6-(4-Morpholinobenzoyl)-2-(pent-3-yn-1-yl)-5-phenyl-1,7-dihydro-4H-pyrrolo[2,3-d]pyrimidin-4-one]
GI50 (HeLa cells [3]; [8]): 0.043 ± 0.002 µM | reduction in activity following isomerization to the internal alkyne (HeLa cells [3]; terminal versus internal alkyne analogues (1, 27 vs 31, 30)): 2 fold

O=C(c1ccc(OCc2ccccc2)cc1)c1[nH]c2[nH]cnc(=O)c2c1-c1ccccc1 [Compound 32]
GI50 [5]: 45 ± 4 nM

C#CCCCc1nc(=O)c2c(-c3ccccc3)c(C(=O)c3ccc(OCCN4CCOCC4)cc3)[nH]c2[nH]1 [Compound 34, 6-[4-(2-Morpholinoethoxy)benzoyl]-2-(pent-4-yn-1-yl)-5-phenyl-1,7-dihydro-4H-pyrrolo[2,3-d]pyrimidin-4-one]
aqueous solubility relative to the other compounds [6]: significantly more soluble | effect on in vitro tubulin polymerization (tubulin; [7]): potent inhibition of microtubule assembly; also recorded: completely suppress tubulin polymerization | effect on interphase microtubules (HeLa cells [2]): no striking effects on interphase microtubules | effect on spindle morphology (HeLa cells [2]): remarkable effects on the spindle morphology | syntelic chromosome attachments (HeLa cells [2]; lower concentrations (GI25)): still prevalent | decrease in antiproliferative activity compared to lead compound 1 (HeLa cells [3]): ~20 fold | GI50 (HeLa cells [3]; [9]): 0.444 ± 0.03 µM

C#CCCCc1nc(=O)c2c(-c3ccccc3)c(C(=O)c3ccc(OCCN4CCCC4)cc3)[nH]c2[nH]1 [Compound 35, 2-(Pent-4-yn-1-yl)-5-phenyl-6-{4-[2-(pyrrolidin-1-yl)ethoxy]benzoyl}-1,7-dihydro-4H-pyrrolo[2,3-d]pyrimidin-4-one]
aqueous solubility relative to the other compounds [6]: significantly more soluble | decrease in antiproliferative activity compared to lead compound 1 (HeLa cells [3]): ~150 fold | GI50 (HeLa cells [3]; [9]): 2.87 ± 0.103 µM

CC(=O)O[C@H]1C(=O)[C@@]2(C)[C@H]([C@H](OC(=O)c3ccccc3)[C@]3(O)C[C@H](OC(=O)[C@H](O)[C@@H](NC(=O)c4ccccc4)c4ccccc4)C(C)=C1C3(C)C)[C@]1(OC(C)=O)CO[C@@H]1C[C@@H]2O [Paclitaxel, paclitaxel, reference compound]
effect on in vitro tubulin polymerization (tubulin; 3 μM): promotes microtubule formation | effect on in vitro tubulin polymerization (tubulin; 3 μM, listed as paclitaxel): potent enhancement of microtubule formation
